Assay results taken from the supplement of paper PMC10307832.

Legend:
Test in all cases: relative viability (nuclei count vs DMSO), 5 days (fraction); higher = more cells survive
AZD1208 + Palbociclib = compound: N[C@@H]1CCCN(c2c(/C=C3\SC(=O)NC3=O)cccc2-c2ccccc2)C1 [AZD1208] + CC(=O)c1c(C)c2cnc(Nc3ccc(N4CCNCC4)cn3)nc2n(C2CCCC2)c1=O [Palbociclib] (partner 0.5 µM)
Summary of the method: (§1)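 Lung cancer cell lines were seeded in 1536-well plates and dosed by pin tool the next day, with either a single drug or a fixed anchor-drug dose combined with five library-drug doses (not always all listed) spaced in √10 steps. Five days later, one step fixed the cells and stained their nuclei (final 0.05% Triton X-100, 1% formaldehyde, 1 ug/ml Hoechst), and nuclei were counted on 4× images. Relative viability is the nuclei count in treated wells divided by the count in vehicle wells, and each value is the median of duplicate plates.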

XMD14-99 + Crizotinib = compound: CN1CCN(CC1)C2=CC(=C(C=C2)NC3=NC(=C(S3)C(=O)C4=C(C=CC=C4Cl)Cl)N)OC [XMD14-99] + C[C@@H](Oc1cc(-c2cnn(C3CCNCC3)c2)cnc1N)c1c(Cl)ccc(F)c1Cl [Crizotinib] (partner 1 µM)
Summary of the method: as §1

AZD1208 + Trametinib = compound: N[C@@H]1CCCN(c2c(/C=C3\SC(=O)NC3=O)cccc2-c2ccccc2)C1 [AZD1208] + CC(=O)Nc1cccc(-n2c(=O)n(C3CC3)c(=O)c3c(Nc4ccc(I)cc4F)n(C)c(=O)c(C)c32)c1 [Trametinib] (partner 0.02 µM)
Summary of the method: as §1

AZD1208 + Vorinostat = compound: N[C@@H]1CCCN(c2c(/C=C3\SC(=O)NC3=O)cccc2-c2ccccc2)C1 [AZD1208] + O=C(CCCCCCC(=O)Nc1ccccc1)NO [Vorinostat] (partner 1 µM)
Summary of the method: as §1

## UMC-11
AZD1208 + Palbociclib; first compound 0.08 µM
  relative viability: 0.293
AZD1208 + Palbociclib; first compound 0.253 µM
  relative viability: 0.281
AZD1208 + Palbociclib; first compound 0.8 µM
  relative viability: 0.291
AZD1208 + Palbociclib; first compound 2.53 µM
  relative viability: 0.308
AZD1208 + Palbociclib; first compound 8 µM
  relative viability: 0.262
XMD14-99 + Crizotinib; first compound 0.08 µM
  relative viability: 0.619
XMD14-99 + Crizotinib; first compound 0.8 µM
  relative viability: 0.582
XMD14-99 + Crizotinib; first compound 2.53 µM
  relative viability: 0.721
XMD14-99 + Crizotinib; first compound 8 µM
  relative viability: 0.577
AZD1208 + Trametinib; first compound 0.08 µM
  relative viability: 0.498
AZD1208 + Trametinib; first compound 0.253 µM
  relative viability: 0.623
AZD1208 + Trametinib; first compound 0.8 µM
  relative viability: 0.454
AZD1208 + Trametinib; first compound 2.53 µM
  relative viability: 0.381
AZD1208 + Trametinib; first compound 8 µM
  relative viability: 0.313
AZD1208 + Vorinostat; first compound 0.08 µM
  relative viability: 0.362
AZD1208 + Vorinostat; first compound 0.253 µM
  relative viability: 0.354
AZD1208 + Vorinostat; first compound 0.8 µM
  relative viability: 0.3
AZD1208 + Vorinostat; first compound 2.53 µM
  relative viability: 0.294
AZD1208 + Vorinostat; first compound 8 µM
  relative viability: 0.211
